Laboratory results reported in the NIST ThermoML archive (doi:10.1021/je049636m).

Details: Liquid

Cc1ccccc1 [toluene]
Details	viscosity [mPa·s]
298.15 K, 100 kPa	0.555
298.15 K, 2110 kPa	0.5649
298.15 K, 4100 kPa	0.5743
298.15 K, 6100 kPa	0.585
298.15 K, 8110 kPa	0.5937
298.15 K, 10110 kPa	0.6024
323.15 K, 100 kPa	0.4188
323.15 K, 2080 kPa	0.429
323.15 K, 4110 kPa	0.4348
323.15 K, 6000 kPa	0.4409
323.15 K, 8120 kPa	0.4493
323.15 K, 10050 kPa	0.455
323.15 K, 12210 kPa	0.4637
323.15 K, 15000 kPa	0.4736
348.15 K, 100 kPa	0.3331
348.15 K, 2120 kPa	0.3382
348.15 K, 12110 kPa	0.3664
348.15 K, 15210 kPa	0.3759

viscosity [mPa·s], Vibrating wire viscometry
Details	100 kPa	10000 kPa	20000 kPa	30000 kPa	40000 kPa
298.15 K	0.5551	0.6003	0.6445	0.6953	0.751
323.15 K	0.4223	0.4573	0.4945	0.5313	0.5718
348.15 K	0.3285	0.3583	0.3875	0.4165	0.4483
